What all share (assay): Antimicrobial activity, agar diffusion technique
Common to all, as to assay type: cell-based
(In general: Agar diffusion results depend on both activity and mobility in agar.)

Assay [1] has as its system Geotricum candidum (RCMB 05097).
In assay [2] the test system is Candida albicans (RCMB 05036).
For assay [3], the system named is Absidia corymbifera (RCMB 02564).
In assay [4] the test system is Staphylococcus epidermidis (RCMB 010024).
The subject of assay [5] is Streptococcus pyogenes (RCMB 010015).
The test system of assay [6] is Staphylococcus aureus (RCMB 010027).
For assay [7], the system named is Salmonella enteritidis(RCMB 010084).
Assay [8] concerns Klebsiella pneumoniae (RCMB 0010093).
The test system of assay [9] is Proteous vulgaris (RCMB 010085).

Take `C[C@@H]1[C@H](O)[C@@H](C)/C=C/C=C/C=C/C=C/C=C/C=C/C=C/[C@H](O[C@@H]2O[C@H](C)[C@@H](O)[C@H](N)[C@@H]2O)C[C@@H]2O[C@](O)(C[C@@H](O)C[C@@H](O)[C@H](O)CC[C@@H](O)C[C@@H](O)CC(=O)O[C@H]1C)C[C@H](O)[C@H]2C(=O)O` [Amphotericin B]: the results for the “Zone of Inhibition (±S.D.)” value in assay [1], in assay [2] and in assay [3] were 27.0 ± 0.20, 25.7 ± 0.10 and 23.0 ± 0.10, respectively.
For the compound `CC1(C)S[C@@H]2[C@H](NC(=O)[C@H](N)c3ccccc3)C(=O)N2[C@H]1C(=O)O` [Ampicillin], the “Zone of Inhibition (±S.D.)” value in [4] was 25.0 ± 0.18; in assay [5] it was 26.3 ± 0.34; in [6], 27.3 ± 0.14.
For the compound Gentamycin, the figures for the “Zone of Inhibition (±S.D.)” value in [7], in [8] and in assay [9] were 25.2 ± 0.18, 26.4 ± 0.15 and 23.4 ± 0.30, respectively.

(Values after patent publication US10202415B1, “Method of synthesizing of 3-oxolupenal nanoparticles” (KING SAUD UNIVERSITY, priority 2017, dated 2019).)
